Source: patent publication US4229204A, “Trifluoromethylphenyl isoxazolyl benzoates” (Monsanto Company, priority 1978, dated 1980)

Experiments:
Assay type in all cases: in vivo
corn = test: Growth regulation of corn (dipping); conditions: 1330 ppm
Quackgrass [1] = test: Post-emergent herbicidal test; conditions: 4 WAT, 11.2 kg/h; also: ranges in brackets are in %
Description: (§1) The post-emergent tests were conducted as follows:
(§2) The active ingredients are applied in spray form to two or three week old specimens of various plant species. The spray, a solution or wettable powder suspension containing the appropriate rate of active ingredient to give the desired test rate and a surfactant, is applied to the plants.
(§3) The compounds were also tested by utilizing the above procedure on the following plant species: […]

Yellow Nutsedge [2] = test: Post-emergent herbicidal test; conditions: 4 WAT, 11.2 kg/h; also: ranges in brackets are in %
Description: as §1, §2, §3

Downy Brome [3] = test: Post-emergent herbicidal test; conditions: 4 WAT; also: ranges in brackets are in %
Description: as §1, §2, §3

Velvetleaf [4] = test: Post-emergent herbicidal test; conditions: 4 WAT; also: ranges in brackets are in %
Description: as §1, §2, §3

Johnsongrass [5] = test: Post-emergent herbicidal test; conditions: 4 WAT, 11.2 kg/h; also: ranges in brackets are in %
Description: as §1, §2, §3

Smartweed [6] = test: Post-emergent herbicidal test; conditions: 4 WAT; also: ranges in brackets are in %
Description: as §1, §2, §3

Cocklebur [7] = test: Post-emergent herbicidal test; conditions: 4 WAT; also: ranges in brackets are in %
Description: as §1, §2, §3

Canada Thistle [8] = test: Post-emergent herbicidal test; conditions: 4 WAT, 11.2 kg/h; also: ranges in brackets are in %
Description: as §1, §2, §3

Barnyardgrass [9] = test: Post-emergent herbicidal test; conditions: 4 WAT; also: ranges in brackets are in %
Description: as §1, §2, §3

Morningglory [10] = test: Post-emergent herbicidal test; conditions: 4 WAT; also: ranges in brackets are in %
Description: as §1, §2, §3

Lambsquarters [11] = test: Post-emergent herbicidal test; conditions: 4 WAT; also: ranges in brackets are in %
Description: as §1, §2, §3

Wild Buckwheat [12] = test: Post-emergent herbicidal test; conditions: 4 WAT; also: ranges in brackets are in %
Description: as §1, §2

Sorghum [13] = test: Post-emergent herbicidal test; conditions: 4 WAT; also: ranges in brackets are in %
Description: as §1, §2

Crabgrass [14] = test: Post-emergent herbicidal test; conditions: 4 WAT; also: ranges in brackets are in %
Description: as §1, §2

Sugarbeet [15] = test: Post-emergent herbicidal test; conditions: 4 WAT; also: ranges in brackets are in %
Description: as §1, §2

Hemp Sesbania [16] = test: Post-emergent herbicidal test; conditions: 4 WAT; also: ranges in brackets are in %
Description: as §1, §2

Wheat [17] = test: Post-emergent herbicidal test; conditions: 4 WAT; also: ranges in brackets are in %
Description: as §1, §2

Panicum Spp. [18] = test: Post-emergent herbicidal test; conditions: 4 WAT; also: ranges in brackets are in %
Description: as §1, §2

Soybean [19] = test: Post-emergent herbicidal test; conditions: 4 WAT; also: ranges in brackets are in %
Description: as §1, §2

Rice [20] = test: Post-emergent herbicidal test; conditions: 4 WAT; also: ranges in brackets are in %
Description: as §1, §2

Wild Buckwheat [21] = test: Pre-emergent herbicidal test; conditions: 4 WAT; also: ranges in brackets are in %
Description: (§4) The pre-emergent test was conducted as follows:
(§5) A good grade of top soil was placed in aluminum pans and compacted to a depth of three-eighths to one-half inch from the top of the pan. On the top of the soil was placed a predetermined number of seeds or vegetative propagules of various plant species which were pressed into the soil surface. The soil required to level fill the pans after seeding or adding vegetative propagules was weighed into a pan. A known amount of the active ingredient applied in a solvent or as a wettable powder and the soil were thoroughly mixed, and used as a cover layer for prepared pans.
(§6) The herbicidal rating was obtained by means of a fixed scale based on the percent injury of each plant species. The ratings are defined as follows: […]

Sorghum [22] = test: Pre-emergent herbicidal test; conditions: 4 WAT; also: ranges in brackets are in %
Description: as §4, §5, §6

Crabgrass [23] = test: Pre-emergent herbicidal test; conditions: 4 WAT; also: ranges in brackets are in %
Description: as §4, §5, §6

Sugarbeet [24] = test: Pre-emergent herbicidal test; conditions: 4 WAT; also: ranges in brackets are in %
Description: as §4, §5, §6

Hemp Sesbania [25] = test: Pre-emergent herbicidal test; conditions: 4 WAT; also: ranges in brackets are in %
Description: as §4, §5, §6

Wheat [26] = test: Pre-emergent herbicidal test; conditions: 4 WAT; also: ranges in brackets are in %
Description: as §4, §5, §6

Panicum Spp. [27] = test: Pre-emergent herbicidal test; conditions: 4 WAT; also: ranges in brackets are in %
Description: as §4, §5, §6

Soybean [28] = test: Pre-emergent herbicidal test; conditions: 4 WAT; also: ranges in brackets are in %
Description: as §4, §5, §6

Rice [29] = test: Pre-emergent herbicidal test; conditions: 4 WAT; also: ranges in brackets are in %
Description: as §4, §5, §6

Quackgrass [30] = test: Pre-emergent herbicidal test; conditions: 4 WAT, 11.2 kg/h; also: ranges in brackets are in %
Description: as §4, §5, §6, §3

Yellow Nutsedge [31] = test: Pre-emergent herbicidal test; conditions: 4 WAT, 11.2 kg/h; also: ranges in brackets are in %
Description: as §4, §5, §6, §3

Downy Brome [32] = test: Pre-emergent herbicidal test; conditions: 4 WAT; also: ranges in brackets are in %
Description: as §4, §5, §6, §3

Velvetleaf [33] = test: Pre-emergent herbicidal test; conditions: 4 WAT; also: ranges in brackets are in %
Description: as §4, §5, §6, §3

Johnsongrass [34] = test: Pre-emergent herbicidal test; conditions: 4 WAT, 11.2 kg/h; also: ranges in brackets are in %
Description: as §4, §5, §6, §3

Smartweed [35] = test: Pre-emergent herbicidal test; conditions: 4 WAT; also: ranges in brackets are in %
Description: as §4, §5, §6, §3

Cocklebur [36] = test: Pre-emergent herbicidal test; conditions: 4 WAT; also: ranges in brackets are in %
Description: as §4, §5, §6, §3

Canada Thistle [37] = test: Pre-emergent herbicidal test; conditions: 4 WAT, 11.2 kg/h; also: ranges in brackets are in %
Description: as §4, §5, §6, §3

Barnyardgrass [38] = test: Pre-emergent herbicidal test; conditions: 4 WAT; also: ranges in brackets are in %
Description: as §4, §5, §6, §3

Morningglory [39] = test: Pre-emergent herbicidal test; conditions: 4 WAT; also: ranges in brackets are in %
Description: as §4, §5, §6, §3

Lambsquarters [40] = test: Pre-emergent herbicidal test; conditions: 4 WAT; also: ranges in brackets are in %
Description: as §4, §5, §6, §3

For “Ethyl 2-[3-[3-(Trifluoromethyl)Phenyl]-5-Isoxazolyl]Benzoate [Example 4]”, the Observations (corn) was “reduction in stature and "buggy whipping" of the leaves”, the herbicidal rating (Quackgrass [1]) was 1 (25-49) and the herbicidal rating (Yellow Nutsedge [2]) was 1 (25-49). For the same substance, the herbicidal rating (Downy Brome [3]; 1.12 kg/h) was 0 (0-24), the herbicidal rating (Downy Brome [3]; 5.60 kg/h) was 0 (0-24) and the herbicidal rating (Downy Brome [3]; 11.2 kg/h) was 0 (0-24). For the same substance, the herbicidal rating (Velvetleaf [4]; 1.12 kg/h) was 2 (50-74), the herbicidal rating (Velvetleaf [4]; 5.60 kg/h) was 1 (25-49) and the herbicidal rating (Velvetleaf [4]; 11.2 kg/h) was 2 (50-74). For the same substance, the herbicidal rating (Johnsongrass [5]) was 1 (25-49), the herbicidal rating (Smartweed [6]; 1.12 kg/h) was 2 (50-74) and the herbicidal rating (Smartweed [6]; 5.60 kg/h) was 4 (100). The herbicidal rating (Smartweed [6]; 11.2 kg/h) was 2 (50-74), the herbicidal rating (Cocklebur [7]; 1.12 kg/h) was 2 (50-74) and the herbicidal rating (Cocklebur [7]; 5.60 kg/h) was 2 (50-74). For the same substance, the herbicidal rating (Cocklebur [7]; 11.2 kg/h) was 1 (25-49), the herbicidal rating (Canada Thistle [8]) was 2 (50-74) and the herbicidal rating (Barnyardgrass [9]; 1.12 kg/h) was 2 (50-74). The herbicidal rating (Barnyardgrass [9]; 5.60 kg/h) was 3 (75-99), the herbicidal rating (Barnyardgrass [9]; 11.2 kg/h) was 3 (75-99) and the herbicidal rating (Morningglory [10]; 1.12 kg/h) was 2 (50-74). The herbicidal rating (Morningglory [10]; 5.60 kg/h) was 2 (50-74), the herbicidal rating (Morningglory [10]; 11.2 kg/h) was 2 (50-74) and the herbicidal rating (Lambsquarters [11]; 1.12 kg/h) was 1 (25-49). The herbicidal rating (Lambsquarters [11]; 5.60 kg/h) was 2 (50-74), the herbicidal rating (Lambsquarters [11]; 11.2 kg/h) was 3 (75-99) and the herbicidal rating (Wild Buckwheat [12]; 1.12 kg/h) was 2 (50-74). The herbicidal rating (Wild Buckwheat [12]; 5.60 kg/h) was 2 (50-74), the herbicidal rating (Sorghum [13]; 1.12 kg/h) was 1 (25-49) and the herbicidal rating (Sorghum [13]; 5.60 kg/h) was 2 (50-74). The herbicidal rating (Crabgrass [14]; 1.12 kg/h) was 1 (25-49), the herbicidal rating (Crabgrass [14]; 5.60 kg/h) was 2 (50-74) and the herbicidal rating (Sugarbeet [15]; 1.12 kg/h) was 1 (25-49). The herbicidal rating (Sugarbeet [15]; 5.60 kg/h) was 2 (50-74), the herbicidal rating (Hemp Sesbania [16]; 1.12 kg/h) was 2 (50-74) and the herbicidal rating (Hemp Sesbania [16]; 5.60 kg/h) was 2 (50-74). The herbicidal rating (Wheat [17]; 1.12 kg/h) was 0 (0-24), the herbicidal rating (Wheat [17]; 5.60 kg/h) was 1 (25-49) and the herbicidal rating (Panicum Spp. [18]; 1.12 kg/h) was 0 (0-24). For the same substance, the herbicidal rating (Panicum Spp. [18]; 5.60 kg/h) was 1 (25-49), the herbicidal rating (Soybean [19]; 1.12 kg/h) was 2 (50-74) and the herbicidal rating (Soybean [19]; 5.60 kg/h) was 2 (50-74). The herbicidal rating (Rice [20]; 1.12 kg/h) was 1 (25-49), the herbicidal rating (Rice [20]; 5.60 kg/h) was 1 (25-49) and the herbicidal rating (Wild Buckwheat [21]; 1.12 kg/h) was 2 (50-74). The herbicidal rating (Wild Buckwheat [21]; 5.60 kg/h) was 2 (50-74), the herbicidal rating (Sorghum [22]; 1.12 kg/h) was 2 (50-74) and the herbicidal rating (Sorghum [22]; 5.60 kg/h) was 3 (75-100). The herbicidal rating (Crabgrass [23]; 1.12 kg/h) was 1 (25-49), the herbicidal rating (Crabgrass [23]; 5.60 kg/h) was 3 (75-100) and the herbicidal rating (Sugarbeet [24]; 1.12 kg/h) was 1 (25-49). The herbicidal rating (Sugarbeet [24]; 5.60 kg/h) was 2 (50-74), the herbicidal rating (Hemp Sesbania [25]; 1.12 kg/h) was 1 (25-49) and the herbicidal rating (Hemp Sesbania [25]; 5.60 kg/h) was 2 (50-74). For the same substance, the herbicidal rating (Wheat [26]; 1.12 kg/h) was 0 (0-24), the herbicidal rating (Wheat [26]; 5.60 kg/h) was 1 (25-49) and the herbicidal rating (Panicum Spp. [27]; 1.12 kg/h) was 2 (50-74). For the same substance, the herbicidal rating (Panicum Spp. [27]; 5.60 kg/h) was 3 (75-100), the herbicidal rating (Soybean [28]; 1.12 kg/h) was 1 (25-49) and the herbicidal rating (Soybean [28]; 5.60 kg/h) was 3 (75-100). For the same substance, the herbicidal rating (Rice [29]; 1.12 kg/h) was 3 (75-100), the herbicidal rating (Rice [29]; 5.60 kg/h) was 3 (75-100) and the herbicidal rating (Quackgrass [30]) was 2 (50-74). For the same substance, the herbicidal rating (Yellow Nutsedge [31]) was 0 (0-24), the herbicidal rating (Downy Brome [32]; 1.12 kg/h) was 1 (25-49) and the herbicidal rating (Downy Brome [32]; 5.60 kg/h) was 2 (50-74). The herbicidal rating (Downy Brome [32]; 11.2 kg/h) was 2 (50-74), the herbicidal rating (Velvetleaf [33]; 1.12 kg/h) was 0 (0-24) and the herbicidal rating (Velvetleaf [33]; 5.60 kg/h) was 1 (25-49). For the same substance, the herbicidal rating (Velvetleaf [33]; 11.2 kg/h) was 2 (50-74), the herbicidal rating (Johnsongrass [34]) was 0 (0-24) and the herbicidal rating (Smartweed [35]; 1.12 kg/h) was 3 (75-100). For the same substance, the herbicidal rating (Smartweed [35]; 5.60 kg/h) was 3 (75-100), the herbicidal rating (Smartweed [35]; 11.2 kg/h) was 2 (50-74) and the herbicidal rating (Cocklebur [36]; 1.12 kg/h) was 0 (0-24). For the same substance, the herbicidal rating (Cocklebur [36]; 5.60 kg/h) was 1 (25-49), the herbicidal rating (Cocklebur [36]; 11.2 kg/h) was 1 (25-49) and the herbicidal rating (Canada Thistle [37]) was 2 (50-74). For the same substance, the herbicidal rating (Barnyardgrass [38]; 1.12 kg/h) was 3 (75-100), the herbicidal rating (Barnyardgrass [38]; 5.60 kg/h) was 3 (75-100) and the herbicidal rating (Barnyardgrass [38]; 11.2 kg/h) was 3 (75-100). The herbicidal rating (Morningglory [39]; 1.12 kg/h) was 2 (50-74), the herbicidal rating (Morningglory [39]; 5.60 kg/h) was 3 (75-100) and the herbicidal rating (Morningglory [39]; 11.2 kg/h) was 2 (50-74). The herbicidal rating (Lambsquarters [40]; 1.12 kg/h) was 3 (75-100), the herbicidal rating (Lambsquarters [40]; 5.60 kg/h) was 2 (50-74) and the herbicidal rating (Lambsquarters [40]; 11.2 kg/h) was 2 (50-74).
